Reference: patent publication US20230111310A1, “CARBOXYLIC ACID DERIVATIVE-SUBSTITUTED IMINO ARYL COMPOUND, PREPARATION METHOD THEREFOR, HERBICIDAL COMPOSITION AND USE THEREOF” (Qingdao Kingagroot Chemical Compound Co., Ltd., priority 2020, published 2023)

How the values were obtained:
Experiment in all cases: Weeding effect in post-emergence stage
Assay type in all cases: in vivo
Conditions in all cases: level of fresh weight growth control rate
Echinochloa crusgalli = system: Echinochloa crusgalli
In short: (§1)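 Read-out is growth control rate, counted 3 weeks post-spray and averaged over three repeats. Greenhouse plants at the 2-3 leaf stage received spray-tower application at 500, 250, 125, 60, 30, 15 or 7.5 g/ha, with methyl oleate EC (1.5 liter/ha) and Tween 80 added.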

Abutilon theophrasti = system: Abutilon theophrasti
In short: as §1

Eleusine indica = system: Eleusine indica
In short: as §1

Alopecurus japonicus = system: Alopecurus japonicus
In short: as §1

Digitaria sanguinalis = system: Digitaria sanguinalis
In short: as §1

Setaria viridis = system: Setaria viridis
In short: as §1

| SMILES | Weeding effect in post-emergence stage, Echinochloa crusgalli (Echinochloa crusgalli; Dose 30 g/ha) | Weeding effect in post-emergence stage, Abutilon theophrasti (Abutilon theophrasti; Dose 30 g/ha) | Weeding effect in post-emergence stage, Eleusine indica (Eleusine indica; Dose 30 g/ha) | Weeding effect in post-emergence stage, Alopecurus japonicus (Alopecurus japonicus; Dose 30 g/ha) | Weeding effect in post-emergence stage, Digitaria sanguinalis (Digitaria sanguinalis; Dose 30 g/ha) | Weeding effect in post-emergence stage, Setaria viridis (Setaria viridis; Dose 30 g/ha) | Weeding effect in post-emergence stage, Echinochloa crusgalli (Echinochloa crusgalli; Dose 15 g/ha) | Weeding effect in post-emergence stage, Abutilon theophrasti (Abutilon theophrasti; Dose 15 g/ha) | Weeding effect in post-emergence stage, Eleusine indica (Eleusine indica; Dose 15 g/ha) | Weeding effect in post-emergence stage, Alopecurus japonicus (Alopecurus japonicus; Dose 15 g/ha) | Weeding effect in post-emergence stage, Digitaria sanguinalis (Digitaria sanguinalis; Dose 15 g/ha) | Weeding effect in post-emergence stage, Setaria viridis (Setaria viridis; Dose 15 g/ha) | also measured |
| --- | --- | --- | --- | --- | --- | --- | --- | --- | --- | --- | --- | --- | --- |
| C[C@@H](O/N=C/c1cc(-n2c(=O)cc(C(F)(F)F)n(C)c2=O)c(F)cc1Cl)C(=O)OCc1cccs1 [268(R)] | 5 (Level 5: growth control rate is above 85%) | 5 (Level 5: growth control rate is above 85%) | 5 (Level 5: growth control rate is above 85%) | 5 (Level 5: growth control rate is above 85%) | 5 (Level 5: growth control rate is above 85%) | 5 (Level 5: growth control rate is above 85%) |  |  |  |  |  |  |  |
| C[C@@H](O/N=C/c1cc(-n2c(=O)cc(C(F)(F)F)n(C)c2=O)c(F)cc1Cl)C(=O)OCc1ccccc1F [284(R)] |  |  |  |  |  |  | 5 (Level 5: growth control rate is above 85%) | 5 (Level 5: growth control rate is above 85%) | 5 (Level 5: growth control rate is above 85%) | 5 (Level 5: growth control rate is above 85%) | 5 (Level 5: growth control rate is above 85%) | 5 (Level 5: growth control rate is above 85%) |  |
| C[C@@H](O/N=C/c1cc(-n2c(=O)cc(C(F)(F)F)n(C)c2=O)c(F)cc1Cl)C(=O)OCc1cccc(F)c1 [285(R)] | 5 (Level 5: growth control rate is above 85%) | 5 (Level 5: growth control rate is above 85%) | 5 (Level 5: growth control rate is above 85%) | 5 (Level 5: growth control rate is above 85%) | 5 (Level 5: growth control rate is above 85%) | 5 (Level 5: growth control rate is above 85%) |  |  |  |  |  |  |  |
| C[C@@H](O/N=C/c1cc(-n2c(=O)cc(C(F)(F)F)n(C)c2=O)c(F)cc1Cl)C(=O)OCc1ccc(F)cc1 [286(R)] | 5 (Level 5: growth control rate is above 85%) | 5 (Level 5: growth control rate is above 85%) | 5 (Level 5: growth control rate is above 85%) | 5 (Level 5: growth control rate is above 85%) | 5 (Level 5: growth control rate is above 85%) | 5 (Level 5: growth control rate is above 85%) |  |  |  |  |  |  |  |
| C[C@@H](O/N=C/c1cc(-n2c(=O)cc(C(F)(F)F)n(C)c2=O)c(F)cc1Cl)C(=O)OCc1cccnc1 [302(R)] |  |  |  |  |  |  | 5 (Level 5: growth control rate is above 85%) | 5 (Level 5: growth control rate is above 85%) | 5 (Level 5: growth control rate is above 85%) | 5 (Level 5: growth control rate is above 85%) | 5 (Level 5: growth control rate is above 85%) | 5 (Level 5: growth control rate is above 85%) |  |
| C[C@@H](O/N=C/c1cc(-n2c(=O)cc(C(F)(F)F)n(C)c2=O)c(F)cc1Cl)C(=O)OCc1ccncc1 [303(R)] |  |  |  |  |  |  | 5 (Level 5: growth control rate is above 85%) | 5 (Level 5: growth control rate is above 85%) | 5 (Level 5: growth control rate is above 85%) | 5 (Level 5: growth control rate is above 85%) | 5 (Level 5: growth control rate is above 85%) | 5 (Level 5: growth control rate is above 85%) |  |
| CCOC(=O)[C@@H](F)O/N=C/c1cc(-n2c(=O)cc(C(F)(F)F)n(C)c2=O)c(F)cc1Cl [313(R)] |  |  |  |  |  |  | 5 (Level 5: growth control rate is above 85%) | 5 (Level 5: growth control rate is above 85%) | 5 (Level 5: growth control rate is above 85%) | 5 (Level 5: growth control rate is above 85%) | 5 (Level 5: growth control rate is above 85%) | 5 (Level 5: growth control rate is above 85%) |  |
| CCC[C@@H](O/N=C/c1cc(-n2c(=O)cc(C(F)(F)F)n(C)c2=O)c(F)cc1Cl)C(=O)OC [316(R)] |  |  |  |  |  |  | 5 (Level 5: growth control rate is above 85%) | 5 (Level 5: growth control rate is above 85%) | 5 (Level 5: growth control rate is above 85%) | 5 (Level 5: growth control rate is above 85%) | 5 (Level 5: growth control rate is above 85%) | 5 (Level 5: growth control rate is above 85%) |  |
| COC(=O)[C@H](O/N=C/c1cc(-n2c(=O)cc(C(F)(F)F)n(C)c2=O)c(F)cc1Cl)C(C)C [318(R)] |  |  |  |  |  |  | 5 (Level 5: growth control rate is above 85%) | 5 (Level 5: growth control rate is above 85%) | 5 (Level 5: growth control rate is above 85%) | 5 (Level 5: growth control rate is above 85%) | 5 (Level 5: growth control rate is above 85%) | 5 (Level 5: growth control rate is above 85%) |  |
| CCOC(=O)[C@H](O/N=C/c1cc(-n2c(=O)cc(C(F)(F)F)n(C)c2=O)c(F)cc1Cl)C1CC1 [319(R)] | 5 (Level 5: growth control rate is above 85%) | 5 (Level 5: growth control rate is above 85%) | 5 (Level 5: growth control rate is above 85%) | 5 (Level 5: growth control rate is above 85%) | 5 (Level 5: growth control rate is above 85%) | 5 (Level 5: growth control rate is above 85%) |  |  |  |  |  |  |  |
| COC(=O)[C@H](OC)O/N=C/c1cc(-n2c(=O)cc(C(F)(F)F)n(C)c2=O)c(F)cc1Cl [321(R)] |  |  |  |  |  |  |  |  |  |  |  |  | Weeding effect in post-emergence stage, Echinochloa crusgalli (Echinochloa crusgalli; Dose 120 g/ha): 5 (Level 5: growth control rate is above 85%); Weeding effect in post-emergence stage, Abutilon theophrasti (Abutilon theophrasti; Dose 120 g/ha): 5 (Level 5: growth control rate is above 85%); Weeding effect in post-emergence stage, Eleusine indica (Eleusine indica; Dose 120 g/ha): 5 (Level 5: growth control rate is above 85%); Weeding effect in post-emergence stage, Alopecurus japonicus (Alopecurus japonicus; Dose 120 g/ha): 5 (Level 5: growth control rate is above 85%); Weeding effect in post-emergence stage, Digitaria sanguinalis (Digitaria sanguinalis; Dose 120 g/ha): 5 (Level 5: growth control rate is above 85%); Weeding effect in post-emergence stage, Setaria viridis (Setaria viridis; Dose 120 g/ha): 5 (Level 5: growth control rate is above 85%) |
| CCOC(=O)[C@H](OC)O/N=C/c1cc(-n2c(=O)cc(C(F)(F)F)n(C)c2=O)c(F)cc1Cl [322(R)] |  |  |  |  |  |  |  |  |  |  |  |  | Weeding effect in post-emergence stage, Echinochloa crusgalli (Echinochloa crusgalli; Dose 120 g/ha): 5 (Level 5: growth control rate is above 85%); Weeding effect in post-emergence stage, Abutilon theophrasti (Abutilon theophrasti; Dose 120 g/ha): 5 (Level 5: growth control rate is above 85%); Weeding effect in post-emergence stage, Eleusine indica (Eleusine indica; Dose 120 g/ha): 5 (Level 5: growth control rate is above 85%); Weeding effect in post-emergence stage, Alopecurus japonicus (Alopecurus japonicus; Dose 120 g/ha): 5 (Level 5: growth control rate is above 85%); Weeding effect in post-emergence stage, Digitaria sanguinalis (Digitaria sanguinalis; Dose 120 g/ha): 5 (Level 5: growth control rate is above 85%); Weeding effect in post-emergence stage, Setaria viridis (Setaria viridis; Dose 120 g/ha): 5 (Level 5: growth control rate is above 85%) |
| CCO[C@H](O/N=C/c1cc(-n2c(=O)cc(C(F)(F)F)n(C)c2=O)c(F)cc1Cl)C(=O)OC [331(R)] |  |  |  |  |  |  | 5 (Level 5: growth control rate is above 85%) | 5 (Level 5: growth control rate is above 85%) | 5 (Level 5: growth control rate is above 85%) | 5 (Level 5: growth control rate is above 85%) | 5 (Level 5: growth control rate is above 85%) | 5 (Level 5: growth control rate is above 85%) |  |
